The IC50 is the point on the concentration scale where inhibition reaches its midpoint.

We go through 14 molecules from patent publication US20260258064A1 (SIRONAX LTD., priority 2023, published 2026).

For the assay, the target named is T1, SARM1 (50-724) (Homo sapiens, UniProt Q6SZW1).
T1 construct: Purified SARM1 (50-724) with a final concentration of 2 nM was pre-incubated with a test compound
T1 sequence (Q6SZW1 50-724): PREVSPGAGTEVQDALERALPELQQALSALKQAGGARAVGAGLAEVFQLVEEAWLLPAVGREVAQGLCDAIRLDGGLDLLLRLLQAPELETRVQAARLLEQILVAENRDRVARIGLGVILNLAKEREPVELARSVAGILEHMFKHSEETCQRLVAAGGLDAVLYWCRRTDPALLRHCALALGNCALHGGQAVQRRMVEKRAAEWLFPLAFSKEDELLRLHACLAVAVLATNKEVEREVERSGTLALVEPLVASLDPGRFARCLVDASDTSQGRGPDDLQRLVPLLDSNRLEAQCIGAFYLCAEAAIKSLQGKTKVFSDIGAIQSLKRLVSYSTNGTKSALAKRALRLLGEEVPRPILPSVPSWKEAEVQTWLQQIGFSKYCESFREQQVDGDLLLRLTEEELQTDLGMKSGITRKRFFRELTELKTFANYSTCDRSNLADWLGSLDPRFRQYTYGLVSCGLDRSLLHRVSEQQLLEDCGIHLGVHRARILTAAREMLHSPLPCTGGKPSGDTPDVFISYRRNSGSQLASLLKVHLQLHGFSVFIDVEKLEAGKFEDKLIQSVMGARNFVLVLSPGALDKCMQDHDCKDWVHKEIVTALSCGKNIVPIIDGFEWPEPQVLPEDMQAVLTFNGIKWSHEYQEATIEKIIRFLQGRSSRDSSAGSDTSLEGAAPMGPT
Kind of assay: SARM1 (50-724) enzymatic assay (LC-MS/MS). Type of assay: biochemical. Conditions: Purified SARM1 (50-724) 2 nM, NMN as activator, NAD+ as substrate, 1 h at room temperature, read-out: IC50 (SARM1 inhibitory activity). The method in brief: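 Reaction buffer was Dulbecco's PBS. Compound and 2 nM human SARM1 (50-724) were pre-incubated 15 min at room temperature, then […] NAD^+ and 200 µM NMN activator were added for 1 h at room temperature. Acetonitrile (70%) stop, LC-MS/MS read-out, IC50 values.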
`N#CC1(c2c(-c3nncn3-c3cnccc3C(F)(F)F)[nH]c3ccc(C(F)(F)F)cc23)CC1` [Compound 425, 1-[5-(trifluoromethyl)-2-[4-[4-(trifluoromethyl)-3-pyridyl]-1,2,4-triazol-3-yl]-1H-indol-3-yl]cyclopropanecarbonitrile]: the half-maximal inhibitory concentration (IC50) was no more than 100 nM.

Take `Nc1nnc(-c2nc3cc(C(F)(F)F)ccc3[nH]2)n1-c1cccc(F)c1Cl` [Compound 396, 4-(2-chloro-3-fluorophenyl)-5-(5-(trifluoromethyl)-1H-benzo[d]imidazol-2-yl)-4H-1,2,4-triazol-3-amine]: the IC50 was no more than 100 nM.

Consider `Cn1cc(-c2cnccc2C(F)(F)F)c(-c2nc3c(Cl)c(Cl)ccc3[nH]2)cc1=O` [Compound 393, 4-(4,5-dichloro-1H-benzo[d]imidazol-2-yl)-1-methyl-4′-(trifluoromethyl)-[3,3′-bipyridin]-6(1H)-one], for which the half-maximal inhibitory concentration (IC50) was in the range of 500 to 1000 nM.

For `Fc1c(C2CC(F)(F)C2)ccc2[nH]c(-c3nncn3-c3cnccc3C(F)(F)F)nc12` [Compound 314, 5-(3,3-difluorocyclobutyl)-4-fluoro-2-(4-(4-(trifluoromethyl)pyridin-3-yl)-4H-1,2,4-triazol-3-yl)-1H-benzo[d]imidazole], the 50% inhibitory concentration (IC50) was no more than 100 nM.

As for `Fc1cc(C(F)(F)F)cc2nc(-c3nncn3-c3cc(C(F)F)ccc3Cl)[nH]c12` [Compound 200, 2-(4-(2-chloro-5-(difluoromethyl)phenyl)-4H-1,2,4-triazol-3-yl)-7-fluoro-5-(trifluoromethyl)-1H-benzo[d]imidazole], the IC50 is no more than 100 nM.

As to `Cc1cnc2[nH]c(-c3nncn3-c3cccc(F)c3Cl)nc2n1` [Compound 176, 2-(4-(2-chloro-3-fluorophenyl)-4H-1,2,4-triazol-3-yl)-6-methyl-1H-imidazo[4,5-b]pyrazine], the IC50 was greater than 1000 nM.

As for `CC1CC(c2cc(F)c3[nH]c(-c4nncn4-c4cnccc4C(F)(F)F)nc3c2)CO1` (centres unmarked) [Compound 423, 7-fluoro-5-(5-methyltetrahydrofuran-3-yl)-2-[4-[4-(trifluoromethyl)-3-pyridyl]-1,2,4-triazol-3-yl]-1H-benzimidazole], the IC50 was no more than 100 nM.

In the case of `Cc1ccc2[nH]c(-c3ccncc3-c3cccc(Cl)c3Cl)nc2c1` [Example 22], the IC50 was in the range of 500 to 1000 nM.

`O=C1OCC(c2nc3cc(C(F)(F)F)ccc3[nH]2)=C1c1cccc(Cl)c1Cl` [Compound 25, 3-(2,3-Dichlorophenyl)-4-(5-(trifluoromethyl)-1H-benzo[d]imidazol-2-yl)furan-2(5H)-one]: the concentration for half-maximal inhibition (IC50) is greater than 1000 nM.

Take `Fc1cc(C2CC23COC3)cc2nc(-c3nncn3-c3cnccc3C(F)(F)F)[nH]c12` (centres unmarked) [Compound 413, 7-fluoro-5-(5-oxaspiro[2.3]hexan-2-yl)-2-[4-[4-(trifluoromethyl)-3-pyridyl]-1,2,4-triazol-3-yl]-1H-benzimidazole]: the IC50 was no more than 100 nM.

Consider `OCC(F)(F)COc1ccc(OC(F)(F)F)c(-n2cnnc2-c2nc3cc(C(F)(F)F)ccc3[nH]2)n1` [Compound 251, 2,2-difluoro-3-((5-(trifluoromethoxy)-6-(3-(5-(trifluoromethyl)-1H-benzo[d]imidazol-2-yl)-4H-1,2,4-triazol-4-yl)pyridin-2-yl)oxy)propan-1-ol], for which the IC50 was no more than 100 nM.

Turning to `Fc1cc(C(F)(F)F)cc2nc(-c3nnccc3-c3cnccc3C(F)(F)F)[nH]c12` [Compound 303, 7-Fluoro-5-(trifluoromethyl)-2-(4-(4-(trifluoromethyl)pyridin-3-yl)pyridazin-3-yl)-1H-benzo[d]imidazole], the IC50 was no more than 100 nM.

With `FC(F)(F)c1ccncc1-n1cnnc1-c1nc2cc(N3C4COCC3C4)ccc2[nH]1` [Compound 342, 6-[2-[4-[4-(trifluoromethyl)-3-pyridyl]-1,2,4-triazol-3-yl]-1H-benzimidazol-5-yl]-3-oxa-6-azabicyclo[3.1.1]heptane], the IC50 fell in the range of 500 to 1000 nM.

Regarding `N#Cc1c(Cl)cccc1-n1cnnc1-c1nc2cc(C(F)(F)F)ccc2[nH]1` [Example 91], the concentration for half-maximal inhibition (IC50) is greater than 1000 nM.
